Test: Absorption of the solution of coated or uncoated riboflavin in water (coloration/release)
Assay type: physicochemical
Settings: amount containing 10 mg riboflavin dissolved in 1000 ml water for 15 min; measured at 545 nm, spectrophotometer
Experimental: 80 g granulated Riboflavin was successively coated with 9% Na-alginate, 1% Ca-Chloride and 25% shellac using a WFP-mini fluid bed processor (DMR) in Wurster configuration. 89 g coated product with particle size between 250 and 1000 μm was obtained. Coating material was 35% of the particle mass, riboflavin content 50%. 20 mg of coated powder (containing 10 mg of Riboflavin) was dissolved in 1000 ml water for 15 min. Absorption of the solution was measured at 545 nm using a spectrophotometer (Genesys 20, thermo Scientific). Absorption of the solution was 0.065.
10 mg of riboflavin powder was dissolved in 1000 ml water for 15 min. Absorption of the solution was measured at 545 nm using a spectrophotometer (Genesys 20, thermo Scientific). Absorption of the solution was 0.386.
80 g granulated Riboflavin was coated with 60 g Eudragit FS30D and 10 g PIasACRYL T20 using a WFP-mini fluid bed processor (DMR) in Wurster configuration. 71 g coated product with particle size between 250 and 1000 μm was obtained. Coating material was ca. 20% of the particle mass, riboflavin content was 60%. 16.6 mg of coated powder (containing 10 mg of Riboflavin) was dissolved in 1000 ml water for 15 min. Absorption of the solution was measured at 545 nm using a spectrophotometer (Genesys 20, thermo Scientific). Absorption of the solution was 0.087.

Cc1cc2nc3c(=O)[nH]c(=O)nc-3n(C[C@H](O)[C@H](O)[C@H](O)CO)c2cc1C [Comparison Example 2, riboflavin]
Absorption of the solution: 0.386

From patent US20230000875A1, “MULTIPLE UNIT PELLET SYSTEM TABLET COMPRISING RIBOFLAVIN” (DSM IP ASSETS B.V., priority 2019, published 2023)
